Measurements from patent US8809314B1, “Cephalosporin compound” (Cubist Pharmaceuticals, Inc., priority 2012, dated 2014).
Values after ≈ are worked out from the molar mass of the structure shown. Where a name gives a salt, the structure may show the parent alone.

What was measured:
[1] = test system: Sa399 (MRSA); assay: MIC, broth microdilution (Example 3), Table 1; format: cell-based; conditions: Staphylococcus aureus, CAMHB, final 2% NaCl
Experimental: (§1) To prepare for MIC testing, individual colonies were isolated by streaking frozen glycerol material containing Staphylococcus or Pseudomonas spp. onto rich, non-selective, tryptic soy agar containing 5% sheep's blood (TSAB), and incubated at 37° C. for 18-24 hrs.
(§2) On the day of testing, primary cultures were started by scraping off 5-10 colonies from the TSAB plates. The material was suspended in ˜5 mL of cation adjusted Mueller Hinton Broth (CAMHB) in 14 mL culture tubes and incubated at 37° C. with aeration (200 rpm) for ˜2 hrs until the OD600 was ≧0.1.
(§3) Inoculum cultures were prepared by standardizing the primary cultures to OD600=0.1 and then adding 20 μL of the adjusted primary culture per 1 mL CAMHB for Pseudomonas and CAMHB plus 4% NaCl for MRSA so that the final inoculum density was ˜10^5 colony forming units per milliliter. Diluted inoculum cultures were used to inoculate 50 μL per well in 96 well broth microdilution assay plates. 50 μL of CAMHB that contained compound concentrations ranging from 64-0.06 μg/mL in two-fold dilutions was also added to the broth microdilution assay plates for a final volume 100 μL per well, therefore final culture OD600 was approximately 0.001 and the final NaCl concentration for the MRSA strain was 2%.
(§4) Plates were incubated for 18-20 hours at 37° C. with aeration (200 rpm). Following incubation, growth was confirmed visually placing plates over a viewing apparatus (stand with a mirror underneath) and then OD600 was measured using a SpectraMax 340PC384 plate reader (Molecular Devices, Sunnyvale, Calif.). Growth was defined as turbidity that could be detected with the naked eye or achieving minimum OD600 of 0.1. MIC values were defined as the lowest concentration producing no visible turbidity.

[2] = test system: Pa44 (WT Pa); assay: MIC, broth microdilution (Example 3), Table 1; format: cell-based; conditions: Pseudomonas aeruginosa, CAMHB
Experimental: as §1, §2, §3, §4

[3] = test system: Pseudomonas aeruginosa (n = 100); assay: MIC90, expanded MIC panel (Table 4); format: cell-based; conditions: 100 Pa strains
Experimental: (§5) II. […] MIC90 values were defined as the concentration required to inhibit growth of 90% of the strains tested. • C. SAR was performed using the following isolates: Sa399 (ATCC43300, MRSA), Sa1721 (NARSA NRS384, MRSA USA 300), Pa44 (ATCC27853), and 4 clinical isolates (Pa2241, Pa2086 (mucoid strain), Pa2694 and Pa2698). • D. The in vitro antibacterial activity of the compound of formula (I) was further evaluated in an expanded MRSA and Pa MIC panel (see Table 4 and FIG. 6).

[4] = test system: MRSA #712; assay: MIC in MHB by standard CLSI microdilution (Example 4); format: cell-based; conditions: Staphylococcus aureus, MRSA
Excerpt: II. Methods • A. Animals: Six week-old, specific pathogen free, female CD-1 mice purchased from Charles River Laboratories (Wilmington, Mass.) were used for all studies after acclimation in Cubist animal facility. All animal procedures were approved by the Cubist Institutional Animal Care and Use Committee. • B. Bacteria and In Vitro Susceptibility Testing: MRSA #712, Pseudomonas aeruginosa #2245 and #2545, and Klebsiella pneumoniae #573 are clinical isolates; Pseudomonas aeruginosa #44 is an ATCC strain (ATCC#27853). MIC was determined in MHB by standard CLSI microdilution. Comparator Antibiotics Used in Animal Studies: Vancomycin hydrochloride USP was purchased from Hospira (Lake Forest, Ill.); ceftazidime hydrate from Sigma; Primaxin (imipenem and cilastatin) from Merck; ceftaroline was synthesized at a CRO. • D. Mouse Septicemia: Mice received lethal inocula of bacteria in 6% hog gastric mucin intraperitoneally (IP), followed by two treatment doses of antibiotics via subcutaneous (SC) administration at 1 and 6 hrs post-inoculation. The survival of animals was recorded daily for 7 days. The antibiotic dose calculated to protect 50% of the mice (PD50) was derived based on probit analysis of percentage survival. • E. Mouse Thigh and Lung Infections: Mice were rendered neutropenic by two IP injections of cyclophosphamide 4 days (150 mg/kg) and 1 day (100 mg/kg) before bacterial inoculation. Thigh or lung infection was induced by an intramuscular injection of 0.2 mL or intranasal inoculation of 0.1 mL inoculum preparation from an overnight bacterial culture into left thigh or nares. Tissues from one group of mice receiving no treatment (No Rx) were harvested at 1 hr for determination of baseline of bacterial burden. The remaining mice received two treatment doses of vehicles or antibiotics given SC at 1 and 6 hrs post-inoculation. Tissues from the treated mice were harvested at ˜24 hrs post-inoculation. Tissue bacterial burdens were quantified by serial dilution and spiral plating of homogenates.

[5] = test system: MRSA #712; assay: Thigh infection in neutropenic mice; format: in vivo, Staphylococcus aureus
Experimental: (§6) In vivo efficacy of (I) was evaluated against strains of MRSA, and ceftazidime-resistant Pa and Klebsiella pneumonia (Kpn) in mouse septicemia, thigh and lung infections. Septicemia: CD-1 mice received lethal bacterial inocula IP, followed by 2 doses of antibiotics SC at 1 and 6 hrs post-inoculation. Dose calculated to protect 50% of the mice (PD50) was derived based on probit analysis of percentage survival. Thigh and lung infections: Thighs or lungs of neutropenic mice were inoculated with MRSA or Pa. Two treatment doses were given SC at 1 and 6 hrs post-inoculation. Tissues were harvested at ˜24 hrs post-inoculation and bacterial burdens quantified.
II. Methods • A. Animals: Six week-old, specific pathogen free, female CD-1 mice purchased from Charles River Laboratories (Wilmington, Mass.) were used for all studies after acclimation in Cubist animal facility. All animal procedures were approved by the Cubist Institutional Animal Care and Use Committee. • B. Bacteria and In Vitro Susceptibility Testing: MRSA #712, Pseudomonas aeruginosa #2245 and #2545, and Klebsiella pneumoniae #573 are clinical isolates; Pseudomonas aeruginosa #44 is an ATCC strain (ATCC#27853). MIC was determined in MHB by standard CLSI microdilution. […] The survival of animals was recorded daily for 7 days. The antibiotic dose calculated to protect 50% of the mice (PD50) was derived based on probit analysis of percentage survival. • E. Mouse Thigh and Lung Infections: Mice were rendered neutropenic by two IP injections of cyclophosphamide 4 days (150 mg/kg) and 1 day (100 mg/kg) before bacterial inoculation. […] Tissue bacterial burdens were quantified by serial dilution and spiral plating of homogenates.

[6] = test system: MRSA #712; assay: Mouse septicemia (systemic infection), PD50; format: in vivo, Staphylococcus aureus; conditions: CD-1 mice, IP inoculum, 2 SC doses at 1 and 6 hrs, 7 day survival
Experimental: as §6
II. […] MIC was determined in MHB by standard CLSI microdilution. […] The survival of animals was recorded daily for 7 days. The antibiotic dose calculated to protect 50% of the mice (PD50) was derived based on probit analysis of percentage survival. • E. Mouse Thigh and Lung Infections: Mice were rendered neutropenic by two IP injections of cyclophosphamide 4 days (150 mg/kg) and 1 day (100 mg/kg) before bacterial inoculation. […] Tissue bacterial burdens were quantified by serial dilution and spiral plating of homogenates.
III. […] The dose that protected 50% of the mice (PD50) was calculated by probit analysis based on percentage of mice surviving for 7 days post-inoculation. • C. […]

[7] = test system: MRSA (n = 21); assay: MIC90, expanded MIC panel (Table 4); format: cell-based; conditions: Staphylococcus aureus, MRSA, read-out: MIC90 MRSA (n = 21)
Experimental: as §5

Row | MIC [1] [µg/mL] | MIC [2] [µg/mL] | Compound | also measured
1 | ≤ 4 | > 16 | CO/N=C(\C(=O)N[C@@H]1C(=O)N2C(C(=O)[O-])=C(C[n+]3ccc(CNC(=O)c4ccccc4)cc3)CS[C@H]12)c1nc(N)sc1Cl [Compound 1-2] | 
2 | 8 to 16 (≈ 11.7 to 23.4 µM) | > 16 | CCCc1ccc(C(=O)NCc2cc[n+](CC3=C(C(=O)[O-])N4C(=O)[C@@H](NC(=O)/C(=N\OC)c5nc(N)sc5Cl)[C@H]4SC3)cc2)cc1 [Compound 1-3] | 
3 | 8 to 16 (≈ 10.2 to 20.5 µM) | > 16 | CO/N=C(\C(=O)N[C@@H]1C(=O)N2C(C(=O)[O-])=C(C[n+]3ccc(CNC(=O)c4cccc(CCNC(=O)C(F)(F)F)c4)cc3)CS[C@H]12)c1nc(N)sc1Cl [Compound 1-4] | 

More lines, now with the values behind:

Row | Compound | MIC [1] [µg/mL] | MIC [2] [µg/mL] | also measured
4 | C[C@@H](O)[C@H]1C(=O)N2C(C(=O)O)=C(S[C@@H]3CN[C@H](C(=O)N(C)C)C3)[C@H](C)[C@H]12 [Meropenem] |  |  | MIC90 [3]: 4 µg/mL (≈ 10.4 µM)
5 | CN[C@H](CC(C)C)C(=O)N[C@H]1C(=O)N[C@@H](CC(N)=O)C(=O)N[C@H]2C(=O)N[C@H]3C(=O)N[C@H](C(=O)N[C@H](C(=O)O)c4cc(O)cc(O)c4-c4cc3ccc4O)[C@H](O)c3ccc(c(Cl)c3)Oc3cc2cc(c3O[C@@H]2O[C@H](CO)[C@@H](O)[C@H](O)[C@H]2O[C@H]2C[C@](C)(N)[C@H](O)[C@H](C)O2)Oc2ccc(cc2Cl)[C@H]1O [Vancomycin, Vancomycin hydrochloride] |  |  | MIC [4]: 1 µg/mL; Thigh (T) ED−2log ([5]; MRSA #712 thigh infection, neutropenic mice, 2 SC doses at 1 and 6 hrs, 24 h, vs vehicle): >110 (T) mg/kg; reduction in bacterial CFU ([5]; MRSA #712 thigh, 110 mg/kg SC): ~1.5 log; Septicemia PD50 (± SE) [6]: 2.0 ± 1.3 mg/kg; MIC90 [7]: 1 µg/mL
